# Experimental data published in US20230210999A1, “TARGETED PROTEASE DEGRADATION (TED) PLATFORM” (EUBULUS BIOTHERAPEUTICS INC., priority 2020, published 2023).
# Like-named read-outs stand apart in the source and are kept apart here.
# Tests used:
# Assay type in all cases: cell-based, human
# [1] = tested on: Daudi cells; experiment: Cell proliferation experiment, Daudi; conditions: Homo sapiens, Daudi, Daudi cells; read-out: Inhibitory activity IC50 on Daudi
# Summary of the method: (§1)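 Log-phase cells were seeded in 96-well plates and exposed to compound in complete medium over a 5-fold dilution series, in duplicate, for 72 h. Alamar blue fluorescence was read per well and IC50 was obtained by four-parameter curve fitting.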
# [2] = tested on: MV4;11 cells; experiment: Cell proliferation experiment (Alamar blue, 72 h), MV4;11; conditions: Homo sapiens, MV4-11, MV4;11 cells; read-out: Inhibitory activity IC50 on MV4;11
# Summary of the method: as §1
# [3] = tested on: NCIH82 cells; experiment: Cell proliferation experiment, NCI-H82; conditions: Homo sapiens, NCI-H82, NCI-H82 cells; read-out: Inhibitory activity IC50 on NCI-H82
# Summary of the method: as §1
# [4] = tested on: MDA-MB-231 cells; experiment: Cell proliferation experiment, MDA-MB-231; conditions: read-out: Inhibitory activity IC50 on MDA-MB-231
# Experimental: (§2) Reagents: RPMI-1640 medium, McCoy's 5A medium, IMDM medium, MEM medium, L-15 medium, fetal bovine serum. Penicillin-Streptomycin double antibody, trypsin, etc., 2-mercaptoethanol, NEAA, pyruvate, etc.
# (§3) The cells were cultured in conventional ways, and the cells should be passed at least 2 generations before plating. Cells at the logarithmic growth phase were collected, prepared into single cell suspensions and counted. The concentration of cells was adjusted to the desired concentration, and cells were inoculated into a 96-well cell culture plate at 100 μl per well. 100 μL of complete medium of the test compound were added to each well, set up 2 duplicate wells for each concentration, and diluted with a 5-fold gradient, and continued to culture for 72 h. All cells were subjected to IC50 test for corresponding samples. The experimental results are shown in Test Example 4.
# (§4) The fluorescence intensity of each well was detected using the Alarm blue method, and IC50 was calculated.
# (§5) IC50 was calculated according to the following formula:
# (§6) Y=Max+(Min−Max)/[1+(X/IC50)×Slope]
# (§7) wherein Min, Max and Slope represent the minimum, maximum and slope respectively.
# [5] = tested on: PC-3; experiment: Cell proliferation experiment, PC-3; conditions: read-out: Inhibitory activity IC50 on PC-3
# Experimental: as §2, §3, §4, §5, §6, §7
# [6] = Homo sapiens, MDA-MB-231, MDA-MB-231 cells
SMILES,IC50 [1] [nM],IC50 [2] [nM],IC50 [3] [nM],"IC50 [4, 6] [nM]","IC50 ([5]; Homo sapiens, PC-3, PC-3 cells) [nM]",IC50 ([5]; PC-3 cells) [nM],IC50 ([4]; MDA-MB-231 cells) [nM]
O=C1CCC(N2Cc3cc(NC(=O)CCOCCOCCOCCn4cc(-c5ccc(Nc6ncc7c(n6)-c6ccc(Cl)cc6C(c6c(F)cccc6F)=NC7)cc5)nn4)ccc3C2=O)C(=O)N1 (stereo not shown) [UB-180950],100 to 1000,< 10,100 to 1000,> 1000,–,–,–
O=C1CCC(N2Cc3cc(NC(=O)CCCCCCCCCNCCn4cc(-c5ccc(Nc6ncc7c(n6)-c6ccc(Cl)cc6C(c6c(F)cccc6F)=NC7)cc5)nn4)ccc3C2=O)C(=O)N1 (stereo not shown) [UB-180986],100 to 1000,10 to 100,100 to 1000,> 1000,–,–,–
CC[C@@H]1C(=O)N(C)c2cnc(Nc3ccc(-c4cn([C@H]5CC[C@@H](NCCOCCC#Cc6ccc7c(c6)CN(C6CCC(=O)NC6=O)C7=O)CC5)nn4)cc3OC)nc2N1C1CCCC1 (stereo partly shown) [UB-181004],10 to 100,< 10,–,10 to 100,–,–,–
O=C1CCC(N2Cc3cc(NC(=O)CCNCCOCCOCCNC(=O)[C@]4(Cc5cccc(Nc6nccs6)n5)CC[C@@H](Oc5cccc(Cl)c5F)CC4)ccc3C2=O)C(=O)N1 (stereo partly shown) [UB-181031],–,> 1000,> 1000,> 1000,> 1000,–,–
O=C1CCC(N2Cc3cc(NC(=O)CNCCCOCCOCCNC(=O)[C@]4(Cc5cccc(Nc6nccs6)n5)CC[C@@H](Oc5cccc(Cl)c5F)CC4)ccc3C2=O)C(=O)N1 (stereo partly shown) [UB-181032],–,100 to 1000,> 1000,> 1000,> 1000,–,–
O=C1CCC(N2Cc3cc(NC(=O)CCNCCCOCCCCNC(=O)c4ccc(Nc5ncc6c(n5)-c5ccc(Cl)cc5C(c5c(F)cccc5F)=NC6)cc4)ccc3C2=O)C(=O)N1 (stereo not shown) [UB-181033],–,100 to 1000,> 1000,> 1000,> 1000,–,–
O=C1CCC(N2Cc3cc(NC(=O)CCNCCCOCCCCNC(=O)[C@]4(Cc5cccc(Nc6nccs6)n5)CC[C@@H](Oc5cccc(Cl)c5F)CC4)ccc3C2=O)C(=O)N1 (stereo partly shown) [UB-181034],–,100 to 1000,> 1000,> 1000,> 1000,–,–
O=C1CCC(N2Cc3c(NC(=O)CNCCCOCCOCCNC(=O)[C@]4(Cc5cccc(Nc6nccs6)n5)CC[C@@H](Oc5cccc(Cl)c5F)CC4)cccc3C2=O)C(=O)N1 (stereo partly shown) [UB-181035],–,100 to 1000,> 1000,> 1000,> 1000,–,–
O=C1CCC(N2Cc3c(NC(=O)CCNCCOCCOCCNC(=O)[C@]4(Cc5cccc(Nc6nccs6)n5)CC[C@@H](Oc5cccc(Cl)c5F)CC4)cccc3C2=O)C(=O)N1 (stereo partly shown) [UB-181036],–,> 1000,> 1000,> 1000,> 1000,–,–
O=C1CCC(N2Cc3c(NC(=O)CCOCCOCCOCCN[C@H]4CC[C@@H](NC(=O)[C@]5(Cc6cccc(Nc7nccs7)n6)CC[C@@H](Oc6cccc(Cl)c6F)CC5)CC4)cccc3C2=O)C(=O)N1 (stereo partly shown) [UB-181037],–,> 1000,> 1000,> 1000,> 1000,–,–
O=C1CCC(N2Cc3cc(NC(=O)CCOCCOCCOCCN[C@H]4CC[C@@H](NC(=O)[C@]5(Cc6cccc(Nc7nccs7)n6)CC[C@@H](Oc6cccc(Cl)c6F)CC5)CC4)ccc3C2=O)C(=O)N1 (stereo partly shown) [UB-181038],–,> 1000,> 1000,> 1000,> 1000,–,–
CNC(=O)c1ccccc1Nc1nc(Nc2ccc(N3CCN(C(=O)NCCOCCOCCNCCC(=O)Nc4ccc5c(c4)CN(C4CCC(=O)NC4=O)C5=O)CC3)cc2)ncc1Cl (stereo not shown) [UB-181039],–,10 to 100,100 to 1000,> 1000,> 1000,–,–
CNC(=O)c1ccccc1Nc1nc(Nc2ccc(N3CCN(C(=O)NCCOCCOCCCNCC(=O)Nc4cccc5c4CN(C4CCC(=O)NC4=O)C5=O)CC3)cc2)ncc1Cl (stereo not shown) [UB-181040],–,10 to 100,> 1000,> 1000,> 1000,–,–
CC[C@@H]1C(=O)N(C)c2cnc(Nc3ccc(-c4cn([C@H]5CC[C@@H](N(C)CCOCCC#Cc6cccc7c6CN(C6CCC(=O)NC6=O)C7=O)CC5)nn4)cc3OC)nc2N1C1CCCC1 (stereo partly shown) [UB-181045],–,< 10,–,< 10,100 to 1000,–,–
CC[C@@H]1C(=O)N(C)c2cnc(Nc3ccc(-c4cn([C@H]5CC[C@@H](N(CCO)CCOCCC#Cc6cccc7c6CN(C6CCC(=O)NC6=O)C7=O)CC5)nn4)cc3OC)nc2N1C1CCCC1 (stereo partly shown) [UB-181052],–,10 to 100,–,100 to 1000,< 10,–,–
CC[C@@H]1C(=O)N(C)c2cnc(Nc3ccc(-c4cn([C@H]5CC[C@@H](N(CCOCCC#Cc6cccc7c6CN(C6CCC(=O)NC6=O)C7=O)C(=O)CO)CC5)nn4)cc3OC)nc2N1C1CCCC1 (stereo partly shown) [UB-181063],–,< 10,–,100 to 1000,100 to 1000,–,–
CC[C@@H]1C(=O)N(C)c2cnc(Nc3ccc(-c4cn([C@H]5CC[C@@H](NCCCOCC#Cc6cccc7c6CN(C6CCC(=O)NC6=O)C7=O)CC5)nn4)cc3OC)nc2N1C1CCCC1 (stereo partly shown) [UB-181089],–,10 to 100,–,10 to 100,10 to 100,–,–
CC[C@@H]1C(=O)N(C)c2cnc(Nc3ccc(NC(=O)N[C@H]4CC[C@H](NCCOCCC#Cc5cccc6c5CN(C5CCC(=O)NC5=O)C6=O)CC4)cc3)nc2N1C1CCCC1 (stereo partly shown) [UB-181126],–,< 10,–,100 to 1000,100 to 1000,–,–
CC[C@@H]1C(=O)N(C)c2cnc(Nc3ccc(NC(=O)N[C@H]4CC[C@H](NCCOCCC#Cc5cccc6c5CN(C5CCC(=O)NC5=O)C6=O)CC4)cc3OC)nc2N1C1CCCC1 (stereo partly shown) [UB-181130],–,< 10,–,100 to 1000,100 to 1000,–,–
CC[C@@H]1C(=O)N(C)c2cnc(Nc3ccc(-c4cn([C@H]5CC[C@@H](NCCOCCC#Cc6cccc7c6CN(C6CCC(=O)NC6=O)C7=O)CC5)nn4)nc3)nc2N1C1CCCC1 (stereo partly shown) [UB-181153],–,10 to 100,–,100 to 1000,100 to 1000,–,–
CC[C@@H]1C(=O)N(C)c2cnc(Nc3ccc(C(=O)N[C@H]4CC[C@@H](NCCOCCC#Cc5cccc6c5CN([C@H]5CCC(=O)NC5=O)C6=O)CC4)cc3)nc2N1C1CCCC1 [UB-181179],–,–,–,–,–,10 to 100,10 to 100
NC(=O)c1ccccc1Nc1nc(Nc2ccc(C3CCN(C(=O)N[C@H]4CC[C@@H](NCCC#Cc5cccc6c5CN(C5CCC(=O)NC5=O)C6=O)CC4)CC3)cc2)ncc1Cl (stereo partly shown) [UB-181183],10 to 100,< 10,10 to 100,–,10 to 100,–,–
NC(=O)c1ccccc1Nc1nc(Nc2ccc(C3CCN(C(=O)NC4CCN(C5CN(CCC#Cc6ccc7c(c6)CN(C6CCC(=O)NC6=O)C7=O)C5)CC4)CC3)cc2)ncc1Cl (stereo not shown) [UB-181199],10 to 100,–,< 10,–,10 to 100,–,–
NC(=O)c1ccccc1Nc1nc(Nc2ccc(N3CCN(C(=O)N[C@H]4CC[C@@H](NCC(O)CC#Cc5ccc6c(c5)CN(C5CCC(=O)NC5=O)C6=O)CC4)CC3)cc2)ncc1Cl (stereo partly shown) [UB-181203],100 to 1000,–,100 to 1000,–,100 to 1000,–,–
NC(=O)c1ccccc1Nc1nc(Nc2ccc(C3CCN(C(=O)N[C@H]4CC[C@@H](NCCCCOCCC#Cc5ccc6c(c5)CN(C5CCC(=O)NC5=O)C6=O)CC4)CC3)cc2)ncc1Cl (stereo partly shown) [UB-181205],100 to 1000,–,100 to 1000,–,100 to 1000,–,–
O=C1CCC(N2Cc3cc(NC(=O)CCOCCOCCOCCN[C@H]4CC[C@@H](n5cc(-c6ccc(Nc7ncc8c(n7)-c7ccc(Cl)cc7C(c7c(F)cccc7F)=NC8)cc6)nn5)CC4)ccc3C2=O)C(=O)N1 (stereo partly shown) [UB- 180980],100 to 1000,< 10,> 1000,> 1000,–,–,–
